How the values were obtained:
[1] = test system: ATXN3 Pre-mRNA (exon 4 skipping); assay: RT-qPCR Assay to Quantify Exon 4 Skipping in ATXN3 Pre-mRNA in Cells; type: cell-based; settings: cells incubated with compound 24 h, normalised to GAPDH, 7-point concentration curve
Procedure: (§1) Test compounds were serially diluted 3.16-fold in 100% DMSO to generate a 7-point concentration curve. Aliquots of 0.5 μL of diluted compounds were transferred to a 96-well flat bottom plate by a liquid handler. An aliquot of 0.5 μL DMSO was also transferred to separate wells and used as controls. Duplicate samples were set up for each compound concentration and for the DMSO control.
Cells were thawed and incubated in cell culture media (DMEM, 10% FBS, and 1% antibiotic cocktail) for 72 h. Cells were trypsinized, counted, and re-suspended to a concentration of 100,000 cells/mL in cell culture media. A 100 μL aliquot of the cell suspensions were plated at 10,000 cells per well in the compound containing 96 well microtiter plate and incubated for in a cell culture incubator (37° C., 5% CO2, 100% relative humidity).
After 24 h, media was aspirated from the cells and 50 μL of the RCL2 lysis buffer (10 mM Tris-HCL pH 7.4, 150 mM NaCl, 0.33% IGEPAL® CA-630) was added to each well and incubated at room temperature for 1 min. Chilled nuclease free water (50 μL per well) was added and the plates were immediately transferred on ice. After 1 min on ice, plates were frozen at −80° C. overnight.
Preparation of RT-qPCR Reaction Mixture:
An aliquot of 2 μL/well of the cell lysates was transferred using the liquid handler to the Armadillo 384-Well PCR plate containing 8 μL/well of the RT-qPCR reaction mixture that was prepared as detailed above. The plates were then sealed with MicroAmp™ Optical Adhesive Film followed by spinning down for 1 min and placed in the CFX384 thermocycler (BioRad).
The RT-qPCR was carried out at the following temperatures for the indicated time: • Step 1: 48° C. (30 min) • Step 2: 95° C. (10 min) • Step 3: 95° C. (15 sec) • Step 4: 60° C. (1 min); then, repeated Steps 3 and 4 for a total of 40 cycles.
The percent exon 4 skipping was calculated for each dose of compound treatment using Equations 1 and 2.
Data were fit to a dose response curve and the IC50 was interpolated using XLfit® statistical and curve fitting package.
An IC50 value between >2.0 μM and ≤3.0 μM is indicated by one star (*). […] IC50 value between >0.5 μM and ≤1.0 μM is indicated by four stars (****). An IC50 value ≤0.5 μM is indicated by five stars (*****).

[2] = test system: Endogenous Total ATXN3 (tATXN3) Protein; assay: Endogenous Total ATXN3 (tATXN3) Protein Assay (MSD immunoassay of cell lysates); type: cell-based; settings: cells incubated with compound 48 h; 7-point concentration curve; MSD plate readout
Procedure: Meso Scale Discovery (MSD) 96-well or 384-well plates were coated overnight at 4° C. with Ataxin 3 mouse monoclonal antibody (Invitrogen, MA3-082) at a concentration of […] in PBS (30 μL per well). Plates were then washed three times with 300 μL wash buffer (0.05% TWEEN®-20, polyethylene glycol sorbitan monolaurate, in PBS) and blocked (Meso Scale Diagnostics, R93BA-1; 5% BSA in PBS) for 2 h at room temperature with rotational shaking and then washed three times with wash buffer.
as §1
Cells were thawed and incubated in cell culture media (DMEM, 10% FBS, and 1% antibiotic cocktail) for 72 h. Cells were trypsinized, counted, and re-suspended to a concentration of 100,000 cells/mL in cell culture media. A 100 μL aliquot of the cell suspensions were plated at 10,000 cells per well in the compound containing 96 well microtiter plate and incubated for in a cell culture incubator (37° C., 5% CO2, 100% relative humidity). After 48 h, the medium was removed and 50-100 μL of lysis buffer (Meso Scale Diagnostics, R60TX-2) containing 1× halt protease inhibitor cocktail of (Thermo Scientific, Halt™ Protease Inhibitor Cocktail, 78430) per well was added to cells to provide a “cell lysate”. The plate was placed on a shaker at 4° C. for 30 minutes, then stored at −80° C.
Cell lysate samples (25 μL) were transferred to the antibody-coated MSD plate and incubated overnight at 4° C. After removal of the lysates, the plate was washed three times with wash buffer, and 25 μL of Ataxin 3 recombinant rabbit monoclonal antibody (Invitrogen, #702788) secondary antibody (diluted to 0.25 μg/mL in 0.05% TWEEN®-20 in blocking buffer) was added to each well and incubated with shaking for 1-2 h at room temperature. Following incubation with the secondary antibody, the wells were rinsed with wash buffer and then 25 μL of Anti Rabbit Antibody Goat SULFO-TAG Labeled (Meso Scale Diagnostics, R32AB-1) detecting antibody (diluted to 0.25 μg/mL in 0.05% TWEEN®-20 in blocking buffer) was added to each well and incubated with shaking for 1 h at room temperature. After rinsing three times with wash buffer, 150 μL of Read Buffer T with surfactant (tris-based buffer containing tripropylamine, Meso Scale Diagnostics, R92TC-1) were added to each empty well, and the plate was imaged on a SI 6000 imager (MSD) according to manufacturers' instructions provided for 96- or 384-well plates.

## CC[C@H](N)Cc1sc2c(NCc3ccns3)nc(Cl)nc2c1C [Cpd 62, 6-[(2S)-2-aminobutyl]-2-chloro-7-methyl-N-[(1,2-thiazol-5-yl)methyl]thieno[3,2-d]pyrimidin-4-amine]
[1]
  IC50: ≤ 500 nM
[2]
  IC50: ≤ 500 nM

## Cc1c(C[C@H](C)N)sc2c(NCc3c(F)cncc3F)nc(Cl)nc12 [Cpd 64, 6-[(2S)-2-aminopropyl]-2-chloro-N-[(3,5-difluoropyridin-4-yl)methyl]-7-methylthieno[3,2-d]pyrimidin-4-amine]
[1]
  IC50: 500 to 1000 nM
[2]
  IC50: 1000 to 1500 nM

## Cc1c(C[C@H](C)CO)sc2c(NCc3ccco3)nc(Cl)nc12 [Cpd 66, (2S)-3-(2-chloro-4-{[(furan-2-yl)methyl]amino}-7-methylthieno[3,2-d]pyrimidin-6-yl)-2-methylpropan-1-ol]
[1]
  IC50 (exon 4 skipping in ATXN3 pre-mRNA): inactive
[2]
  IC50 (average, total ATXN3 protein): inactive

## Cc1c(CCCN)sc2c(NCc3ccco3)nc(Cl)nc12 [Cpd 67, 6-(3-aminopropyl)-2-chloro-N-[(furan-2-yl)methyl]-7-methylthieno[3,2-d]pyrimidin-4-amine]
[1]
  IC50 (exon 4 skipping in ATXN3 pre-mRNA): inactive
[2]
  IC50 (average, total ATXN3 protein): inactive

## C[C@H](N)Cc1sc2c(NCc3ccncc3F)nc(Cl)nc2c1Br [Cpd 68, 6-[(2S)-2-aminopropyl]-7-bromo-2-chloro-N-[(3-fluoropyridin-4-yl)methyl]thieno[3,2-d]pyrimidin-4-amine]
[1]
  IC50: ≤ 500 nM
[2]
  IC50: ≤ 500 nM

## Cc1c(C[C@H](C)CN)sc2c(NCc3ccco3)nc(Cl)nc12 [Cpd 70, 6-[(2S)-3-amino-2-methylpropyl]-2-chloro-N-[(furan-2-yl)methyl]-7-methylthieno[3,2-d]pyrimidin-4-amine]
[1]
  IC50: 500 to 1000 nM
[2]
  IC50: 1000 to 1500 nM

## Cc1c(C[C@@H](C)CN)sc2c(NCc3ccco3)nc(Cl)nc12 [Cpd 72, 6-[(2R)-3-amino-2-methylpropyl]-2-chloro-N-[(furan-2-yl)methyl]-7-methylthieno[3,2-d]pyrimidin-4-amine]
[1]
  IC50: 1500 to 2000 nM
[2]
  IC50: > 2000 nM

## Cc1c(C[C@H](C)N)sc2c(NCc3ncc[nH]3)nc(Cl)nc12 [Cpd 73, 6-[(2S)-2-aminopropyl]-2-chloro-N-[(1H-imidazol-2-yl)methyl]-7-methylthieno[3,2-d]pyrimidin-4-amine]
[1]
  IC50 (exon 4 skipping in ATXN3 pre-mRNA): inactive
[2]
  IC50 (average, total ATXN3 protein): inactive

## Cc1c(C[C@H](C)N)sc2c(NCc3cncs3)nc(Cl)nc12 [Cpd 74, 6-[(2S)-2-aminopropyl]-2-chloro-7-methyl-N-[(1,3-thiazol-5-yl)methyl]thieno[3,2-d]pyrimidin-4-amine]
[1]
  IC50: 1000 to 1500 nM
[2]
  IC50: 1500 to 2000 nM

## Cc1c(C[C@H](C)N)sc2c(NCc3cnco3)nc(Cl)nc12 [Cpd 75, 6-[(2S)-2-aminopropyl]-2-chloro-7-methyl-N-[(1,3-oxazol-5-yl)methyl]thieno[3,2-d]pyrimidin-4-amine]
[1]
  IC50: 500 to 1000 nM
[2]
  IC50: 1000 to 1500 nM

## CCc1c(C[C@H](C)N)sc2c(NCc3ccco3)nc(Cl)nc12 [Cpd 77, 6-[(2S)-2-aminopropyl]-2-chloro-7-ethyl-N-[(furan-2-yl)methyl]thieno[3,2-d]pyrimidin-4-amine]
[1]
  IC50: ≤ 500 nM
[2]
  IC50: ≤ 500 nM

## Cc1c(C[C@H](C)NC2CCC2)sc2c(NCc3ccco3)nc(Cl)nc12 [Cpd 78, 2-chloro-6-[(2S)-2-(cyclobutylamino)propyl]-N-[(furan-2-yl)methyl]-7-methylthieno[3,2-d]pyrimidin-4-amine]
[1]
  IC50: 1000 to 1500 nM
[2]
  IC50: 1500 to 2000 nM

## Clc1nc(NCc2cccs2)c2scc(Br)c2n1 [Cpd 80, 7-bromo-2-chloro-N-[(thiophen-2-yl)methyl]thieno[3,2-d]pyrimidin-4-amine]
[1]
  IC50 (exon 4 skipping in ATXN3 pre-mRNA): inactive
[2]
  IC50 (average, total ATXN3 protein): inactive

## Cc1c(C[C@H](C)N)sc2c(NCc3ccnn3C)nc(Cl)nc12 [Cpd 81, 6-[(2S)-2-aminopropyl]-2-chloro-7-methyl-N-[(1-methyl-1H-pyrazol-5-yl)methyl]thieno[3,2-d]pyrimidin-4-amine]
[1]
  IC50 (exon 4 skipping in ATXN3 pre-mRNA): inactive
[2]
  IC50 (average, total ATXN3 protein): inactive

## C[C@H](N)Cc1sc2c(NCc3cccs3)nc(Cl)nc2c1Br [Cpd 82, 6-[(2S)-2-aminopropyl]-7-bromo-2-chloro-N-[(thiophen-2-yl)methyl]thieno[3,2-d]pyrimidin-4-amine]
[1]
  IC50: ≤ 500 nM
[2]
  IC50: ≤ 500 nM

## C[C@H](N)Cc1sc2c(NCc3cccs3)nc(Cl)nc2c1C1CC1 [Cpd 86, 6-[(2S)-2-aminopropyl]-2-chloro-7-cyclopropyl-N-[(thiophen-2-yl)methyl]thieno[3,2-d]pyrimidin-4-amine]
[1]
  IC50: ≤ 500 nM
[2]
  IC50: ≤ 500 nM

## C[C@H](N)Cc1sc2c(NCc3cccs3)nc(Cl)nc2c1-c1ccc(Cl)cc1 [Cpd 88, 6-[(2S)-2-aminopropyl]-2-chloro-7-(4-chlorophenyl)-N-[(thiophen-2-yl)methyl]thieno[3,2-d]pyrimidin-4-amine]
[1]
  IC50 (exon 4 skipping in ATXN3 pre-mRNA): inactive
[2]
  IC50 (average, total ATXN3 protein): inactive

## Cc1c(C[C@H](C)N)sc2c(NCc3sccc3F)nc(Cl)nc12 [Cpd 90, 6-[(2S)-2-aminopropyl]-2-chloro-N-[(3-fluorothiophen-2-yl)methyl]-7-methylthieno[3,2-d]pyrimidin-4-amine]
[1]
  IC50: ≤ 500 nM
[2]
  IC50: ≤ 500 nM

## Cc1c(C[C@H](C)N)sc2c(NCc3nc(F)cs3)nc(Cl)nc12 [Cpd 92, 6-[(2S)-2-aminopropyl]-2-chloro-N-[(4-fluoro-1,3-thiazol-2-yl)methyl]-7-methylthieno[3,2-d]pyrimidin-4-amine]
[1]
  IC50: ≤ 500 nM
[2]
  IC50: ≤ 500 nM

## Cc1c(C[C@H](C)N)sc2c(NCc3ncc(F)s3)nc(Cl)nc12 [Cpd 93, 6-[(2S)-2-aminopropyl]-2-chloro-N-[(5-fluoro-1,3-thiazol-2-yl)methyl]-7-methylthieno[3,2-d]pyrimidin-4-amine]
[1]
  IC50: ≤ 500 nM
[2]
  IC50: ≤ 500 nM

## Cc1c([C@@H](C)N)sc2c(NCc3ccco3)nc(Cl)nc12 [Cpd 94, 6-[(1R)-1-aminoethyl]-2-chloro-N-[(furan-2-yl)methyl]-7-methylthieno[3,2-d]pyrimidin-4-amine]
[1]
  IC50 (exon 4 skipping in ATXN3 pre-mRNA): inactive
[2]
  IC50 (average, total ATXN3 protein): inactive

## Cc1c(C[C@@H](N)CCO)sc2c(NCc3ccco3)nc(Cl)nc12 [Cpd 97, (3S)-3-amino-4-(2-chloro-4-{[(furan-2-yl)methyl]amino}-7-methylthieno[3,2-d]pyrimidin-6-yl)butan-1-ol]
[1]
  IC50: ≤ 500 nM
[2]
  IC50: ≤ 500 nM

— patent US20240043444A1, “METHODS FOR TREATING SPINOCEREBELLAR ATAXIA TYPE 3” (PTC Therapeutics, Inc., priority 2021, published 2024)
